According to paper PMC12731105, “Design and Synthesis of New Quinoxaline Analogs to Regenerate Sensory Auditory Hair Cells” (Cells, 2025):

Key:
[1] = Plasma protein binding (rapid equilibrium dialysis); assay type: in vitro ADME, mice; conditions: mouse, plasma, mice plasma protein binding (footnote); RED, 10 µg/mL, four hours, 37 °C; read-out: PPB (% Bound) (converted)
[2] = system: HEI-OC1 cells; experiment: TACS MTT cell proliferation / metabolic activity assay in HEI-OC1; assay type: cell-based, mouse; conditions: for Metabolic activity throughout all concentrations: 0.1–100 μM, throughout all concentrations and cell lines; for Proliferative effect vs Qx-70 and untreated cells: HEI-OC1, TACS MTT
Method: HEI-OC1 cells derived from the mouse OC (kindly provided by Dr. F. Kalinec) were cultured under permissive conditions (33 °C, 10% CO2) as described in [22]. Additionally, we assessed the activity of Qx-derived compounds in the mouse neuroblastoma cell line, Neuro-2A, and the human fibrosarcoma HT-1080 (ATCC, Manassas, VA, USA) following the standard cell culture guidelines provided by the vendor.
(§1) In vitro cell proliferation effects of all ten initial compounds (Figure 1A,B) were tested on HEI-OC1, Neuro-2A and HT-1080 cells by TACS® 3-(4,5-dimethylthiazol-2-yl)-2,5-diphenyltetrazolium bromide (MTT) Cell Proliferation Assay (R&D Systems, Minneapolis, MN, USA, 4890-025-K), following the manufacturer’s protocol. Absorbance was measured with SpectraMax® M Series Multi-Mode Microplate Reader with Soft Max Pro 7.2 GxP Software (Molecular Devices, Sunnyvale, CA, USA), and the average OD in control cells was taken as 100% of viability. Upon selecting the most viable compounds (Qx-294 and Qx-301), we proceeded with in vivo experiments. For zebrafish treatment, animals were incubated for varied times with different concentrations (50, 100, 150, 200, 250, and 300 μg/mL) of Qx-294 or Qx-301 diluted in swimming (E3) media or administered via IP injections. Mice treatment followed the same procedures as described in [18]. Following treatment, animals or tissue samples were incubated in Click-it EdU or Click-it Plus TUNEL kits (Thermo Scientific, Waltham, MA, USA), following the manufacturer’s instructions to label proliferating and apoptotic cells, respectively.

[3] = system: zebrafish neuromast SCs; experiment: EdU proliferation assay in zebrafish neuromasts; assay type: in vivo, zebrafish (Danio rerio); conditions: p < 0.05; for Number of proliferating (EdU-positive) cells per neuromast vs control: zebrafish, 50–300 μg/mL, 24 h post-treatment
Method: as §1
Cell numbers in mouse cochleae or fish, as well as fish neuromast morphologies, were evaluated in 25 zebrafish per drug and treatment group across three experimental runs. […] Images were analyzed at 200X magnification, obtained from different neuromasts and cochlear regions (apex, middle, and base). HCs were quantified in the mouse OC by counting M7a-positive cells, with HC identity further confirmed by phalloidin-labeled stereocilia. Apoptosis and cell proliferation events, on the other hand, were quantified by counting TUNEL- and EdU-positive cells, respectively. […] The number of HCs (IHCs and OHCs) is expressed as units per 200 μm. […] IHCs and OHCs were counted on reconstructed confocal stacks using NIH ImageJ v1.8.0 software. […] Reliability statistics were calculated in SPSS v22.0. […] Fluorescence incorporation following treatment with FM1-43 was quantified according to [19] using ImageJ. […]

[4] = system: zebrafish lateral line neuromast HCs; experiment: Zebrafish neuromast morphology scoring (otoferlin/GFP immunofluorescence); assay type: in vivo, zebrafish (Danio rerio); conditions: 5-dpf zebrafish, 24 h; for Neuromast morphology scores vs control: 50–300 μg/mL in E3 medium, Kruskal–Wallis, p > 0.05
Method: The GFP (Tg(brn3c: GFP) zebrafish larvae expressing HC membrane-bound GFP [19] were used to evaluate the effect of Qx-294 and Qx-301 on HCs and SCs of the lateral line neuromasts. Healthy 5-dpf zebrafish, maintained at 28.5 °C, were randomly distributed into Petri dishes at a density of 50 embryos/larvae per 100 mm^2 and exposed to various concentrations of Qx-294 and Qx-301 (50, 100, 150, 200, 250, and 300 μg/mL) diluted in E3 (5 mM NaCl, 0.17 mM KCl, 0.33 mM CaCl2 and 0.33 MgSO4, pH 7.2) medium for 24 h. Following treatment, the animals were transferred to E3 media for 30 min to recover, then cryoanesthetized and fixed with 4% paraformaldehyde (PFA) overnight at 4 °C. The following neuromasts were analyzed in our studies: IO4 (infraorbital 4), OP1 (opercular 1), M2 (mandibular 2), O1 (otic 1), O2, and MI2 (middle 2). An arbitrary scoring protocol was used to rank the morphology of each neuromast after treatment as follows: 1 (normal rosette-like shape, HCs look normal, HC bundles are properly arranged), 2 (normal rosette-like shape, a few HCs appear to be missing, but HC bundles are properly arranged), 3 (normal rosette-like morphology but several HCs are gone and HC bundles look disturbed), 4 (the rosette-like shape is lost in certain areas, few HCs, and few disrupted HC bundles), and 5 (no rosette-like shape, one or two dispersed HCs and no HC bundles). At least 25 animals per treatment were assessed, for a total of 200 across the entire study. The assessment was performed in a double-blind and unbiased manner. Scores were expressed as percentages of the total of neuromasts analyzed per treatment.
Cochlear dissection in mice and immunofluorescence experiments on zebrafish neuromasts and mouse cochleae were performed as previously described. The antibody and labeling kits used in this study included Otoferlin (Developmental Studies Hybridoma Bank, Iowa City, IA, USA, HCS-1), GFP (Novus Biologicals, NB100-1614), and rabbit anti-myosin VIIa (M7a) (Thermo Scientific, Waltham, MA, USA, PA1-936). Species-specific Alexa Fluor-conjugated secondary antibodies were used for detection. Phalloidin conjugated to Alexa 488 (Thermo Scientific, Waltham, MA, USA, O7466) and DAPI were used for labeling stereocilia and the nucleus, respectively.

Row | fraction unbound at 4 h, 10 µg/mL [1] | Neuromast morphology at 50 and 150 μg/mL ([4]; not statistically significant) | Neuromast morphology at the highest concentrations vs control ([4]; not statistically significant) | SMILES | Metabolic activity throughout all concentrations [2] | Proliferative effect vs Qx-70 and untreated cells [2] | Number of proliferating (EdU-positive) cells per neuromast vs control [3] | Neuromast morphology scores vs control [4] | Number of EdU-positive SCs compared between the two compounds ([3]; zebrafish neuromasts, Two-Way ANOVA with Bonferroni correction)
1 | 0.115 | some HC loss was observed | – | c1ccc2nc(N3CCOCC3)cnc2c1 [Qx-294, 2-(morpholine)-quinoxaline] | elevated yet stable metabolic activity | significant and reproducible proliferative effects greater than those of Qx-70 and the untreated cells | significantly higher number of proliferating cells than the control groups | did not differ significantly from those of the control group | –
2 | ~0.68 | – | improved morphology | c1ccc2nc(N3CCCC3)cnc2c1 [Qx-301, 2-(pyrrolidine)-quinoxaline] | elevated yet stable metabolic activity | significant and reproducible proliferative effects greater than those of Qx-70 and the untreated cells | significantly higher number of proliferating cells than the control groups | did not differ significantly from those of the control group | significantly higher for Qx-301- than for Qx-294-treated neuromasts
